The text below walks through data of patent US5206428A, “Tetrahydronaphthalene derivatives and preparation thereof” (Tanabe Seiyaku Co., Ltd., priority 1989, dated 1993).

SMILES strings stand for the structures. Values after ≈ are worked out from the molar mass of the structure shown.

The assay relates to U-46619-induced platelet aggregation. Kind of assay: U-46619-induced platelet aggregation-inhibiting activity (in vitro). The assay is classed as cell-based. The note with it: human platelet-rich plasma, 4×10^5 cells/mm^3, U-46619 solution (0.2 μg/ml), 37° C., Born's method. How it is done:
The bottom layer was further centrifuged to give platelet-poor plasma ("PPP") as the supernatant. PRP was diluted with PPP so that the platelet count was 4×10^5 cells/mm^3. 25 μl of a test compound solution was added to 200 μl of said diluted PRP.
As for `O=C([O-])Cc1ccc2c(c1)CCC(NS(=O)(=O)c1ccc(Cl)cc1)C2.[Na+]` (stereo not drawn) [Compound No. 2, Sodium 6(4-chlorophenyl)sulfonylamino-5,6,7,8-tetrahydronaphthalene-2-acetate], the half-maximal inhibitory concentration (IC50) (as a rule, the point on the concentration scale where inhibition reaches its midpoint) stood at 0.06 µg/mL.
For `O=C(O)CCCNC(=O)Cc1ccc2c(c1)CCC(NS(=O)(=O)c1ccc(Cl)cc1)C2` (stereo not drawn) [Compound No. 3] the value was 0.7 µg/mL (≈ 1.51 µM).
For `Cc1ccc(S(=O)(=O)NC2CCc3cc(CC(=O)NCCC(=O)O)ccc3C2)cc1` (stereo not drawn) [Compound No. 1] the value was 0.2 µg/mL (≈ 0.465 µM).
